Experiments:
[1] = Intrinsic dissolution rate (IDR) of pellets, USP equipment 2 (paddle method); format: physicochemical; details: for Dissolution rate (intrinsic dissolution rate in terms of ratio): 37° C., 50 rpm, ratio to agomelatine
Experimental: In order to measure the intrinsic dissolution rate (IDR) of agomelatine and the agomelatine-resorcinol co-crystal, 50 mg of agomelatine and 72.63 mg of the agomelatine-resorcinol co-crystal of Example 1 were molded into a number of pellets having a constant surface area and then subjected to a dissolution testing.
Each powder specimen was put in a 13 mm pellet die (Specac, UK), squeezed down under a weight of 0.5 ton for 2 minutes with a hydraulic compressor and then molded into pellets having a constant surface area of 1.33 cm^2.
The pellets thus obtained were immobilized in 900 ml of a testing solution (pH 1.2 HCl aqueous solution and pH 6.8 phosphate-buffer solution) at 37° C., which solution was stirred with USP equipment 2 (paddle method) operated at 50 rpm. Then, the concentration of the agomelatine released from the pellets was measured.
3 ml of the testing solution was collected each time of 3 min, 5 min, 10 min, 15 min, 20 min, 25 min, 30 min, 45 min, 60 min, 75 min, 90 min, 105 min, and 120 min. The concentration (dissolved amount) of agomelatine in the collected solution was measured with UV-3600 (Shimadzu, Japan) spectrochemical analysis equipment.
FIG. 11 presents the results of the dissolution testing for the agomelatine and the agomelatine-resorcinol co-crystal in an aqueous solution of HCl (pH 1.2) and a phosphate-buffered solution (pH 6.8).

[2] = Thermal stability testing: powder kept at 70° C., then X-ray diffraction analysis; format: physicochemical
Excerpt: In other words, the antisolvent method of the present invention makes it possible to produce an agomelatine-resorcinol co-crystal with higher stability.

[3] = Medium pH = 1.2 HCl aqueous solution
[4] = Medium pH = 6.8 phosphate-buffer solution

## COc1ccc2cccc(CCNC(C)=O)c2c1 [Agomelatine, agomelatine]
[1]; [3]
  Dissolution rate (intrinsic dissolution rate in terms of ratio): 1.0
[1]; [4]
  Dissolution rate (intrinsic dissolution rate in terms of ratio): 1.0

## agomelatine-resorcinol co-crystal [Example 1]
[2]; kept at 70° C. for 30 days
  crystal form after storage (XRD): pure crystal form was maintained
[1]; [3]
  Dissolution rate (intrinsic dissolution rate in terms of ratio): 2.3
[1]; [4]
  Dissolution rate (intrinsic dissolution rate in terms of ratio): 3.2
[1]; acidic medium (pH 1.2)
  dissolution rate higher than agomelatine: 2.3 fold
[1]; neutral medium (pH 6.8)
  dissolution rate higher than agomelatine: 3.2 fold

## agomelatine-resorcinol co-crystal [Preparation Example 1, reference compound]
[2]; same temperature conditions (70° C.), 7 days
  crystal form after storage (XRD): deformation occurred
